Earlier results on 1 compound are cited in US10335495B2, “Biomolecule conjugates” (CELGENE CORPORATION, priority 2014, dated 2019).

For this series the following is noted: versus methotrexate, daunorubicin, and vincristine.

Take `COc1cc2cc(c1Cl)N(C)C(=O)C[C@H](OC(=O)[C@H](C)N(C)C(C)=O)[C@]1(C)O[C@H]1[C@H](C)[C@@H]1C[C@@](O)(NC(=O)O1)[C@H](OC)/C=C/C=C(\C)C2` [Maytansine]: the “more cytotoxic than conventional cancer chemotherapeutic agents” value is 100- to 1000 fold.
